The values that follow come from US8865734B2 (priority 2010, dated 2014).

Molecules are shown by their SMILES.

For this test, the system named is in vitro grown Mycobacteria (M. tuberculosis). Description: QUM: Quantification of in vitro grown Mycobacteria (in vitro growth fluorescence assay). Type of test: cell-based. The following applies: Mycobacterium tuberculosis; MIC, 80% bacterial growth inhibition; in vitro growth; read-out: QUM. An excerpt: A 120,000 small molecule compound library was screened using a validated phenotypic cell-based assay (WO2010003533A2). Active compounds from the primary screen were confirmed via dose response in the intracellular (QIM) assay and an in vitro (QUM) assay, wherein the abbreviation “QIM” stands for Quantification of Intracellular Mycobacteria and the abbreviation “QUM” stands for Quantification of in vitro grown Mycobacteria. […] The MIC is the minimum concentration of compound required to obtain 80% bacterial growth inhibition.
The imidazopyridine compounds (scaffolds Ia and Ib; see Table 1) underwent derivatization according to the methods outlined below (Schemes 1-13). Resulting derivatives were examined for inhibitory activity (MIC) using the assays described above (Example 1) and the results are summarized in Table 1.
For the compound `CCc1nc2ccccn2c1C(=O)NCc1ccc2oc(-c3ccc(F)cc3)nc2c1` [Compound 334, 2-Ethyl-N-((2-(4-fluorophenyl)benzo[d]oxazol-5-yl)methyl)imidazo[1,2-a]pyridine-3-carboxamide], the MIC is < 1 µM. For the compound `CCc1nc2ccc(C)cn2c1C(=O)NCc1ccc(N2CCOCC2)cc1` [Compound 219, 2-ethyl-6-methyl-N-(4-morpholinobenzyl)imidazo[1,2-a]pyridine-3-carboxamide], the MIC was < 1 µM. As for `CCc1nc2c(Br)cccn2c1C(=O)NCc1ccc(N2CCOCC2)cc1` [Compound 320, 8-Bromo-2-ethyl-N-(4-morpholinobenzyl)imidazo[1,2-a]pyridine-3-carboxamide], the MIC was < 1 µM. Under `CCc1nc2cc(Cl)ccn2c1C(=O)NCc1ccc2oc(-c3ccc(F)cc3)nc2c1` [Compound 336, 7-Chloro-2-ethyl-N-((2-(4-fluorophenyl)benzo[d]oxazol-5-yl)methyl)imidazo[1,2-a]pyridine-3-carboxamide] stands < 1 µM; under `CCc1nc2cc(C)ccn2c1C(=O)NCc1ccc(OC(F)(F)F)cc1` [Compound 249, 2-Ethyl-7-methyl-N-(4-(trifluoromethoxy)benzyl)imidazo[1,2-a]pyridine-3-carboxamide], < 1 µM; under `CCc1nc2ccc(Cl)cn2c1C(=O)NCc1ccc2oc(-c3ccc(F)cc3)nc2c1` [Compound 335, 6-Chloro-2-ethyl-N-((2-(4-fluorophenyl)benzo[d]oxazol-5-yl)methyl)imidazo[1,2-a]pyridine-3-carboxamide], < 1 µM. On to `CCc1nc2ccc(Cl)cn2c1C(=O)NCc1ccc(N2CCC(c3ccc(OC(F)(F)F)cc3)CC2)cc1` [Compound 289, 6-Chloro-2-ethyl-N-(4-(4-(4-(trifluoromethoxy)phenyl)piperidin-1-yl)benzyl)imidazo[1,2-a]pyridine-3-carboxamide], for which the MIC was < 1 µM. With `CCc1nc2cc(OC)ccn2c1C(=O)NCc1ccc(N2CCN(c3ccc(F)cc3)CC2)cc1` [Compound 114, 2-Ethyl-N-(4-(4-(4-fluorophenyl)piperazin-1-yl)benzyl)-7-methoxyimidazo[1,2-a]pyridine-3-carboxamide], the MIC was < 1 µM. As for `CCc1nc2ccc(Cl)cn2c1C(=O)NCc1ccc(N2CCC(c3ccc(Cl)cc3)CC2)cc1` [Compound 337, 6-Chloro-N-(4-(4-(4-chlorophenyl)piperidin-1-yl)benzyl)-2-ethylimidazo[1,2-a]pyridine-3-carboxamide], the MIC was < 1 µM. For `CCc1nc2cc(Cl)ccn2c1C(=O)NCc1ccc(N2CC3CC=CCC3C2)cc1` (centres unmarked) [Compound 223, 7-Chloro-N-(4-(3a,4-dihydro-1H-isoindol-2(3H,7H,7aH)-yl)benzyl)-2-ethylimidazo[1,2-a]pyridine-3-carboxamide], the MIC is < 1 µM.

Regarding `CCc1nc2c(-c3ccncc3)cccn2c1C(=O)NCc1ccc(N2CCOCC2)cc1` [Compound 327, 2-Ethyl-N-(4-morpholinobenzyl)-8-(pyridin-4-yl)imidazo[1,2-a]pyridine-3-carboxamide], the MIC was > 20 µM. For the compound `CCc1nc2cc(Br)ccn2c1C(=O)NCc1ccc(OC(F)(F)F)cc1` [Compound 250, 7-Bromo-2-ethyl-N-(4-(trifluoromethoxy)benzyl)imidazo[1,2-a]pyridine-3-carboxamide], the MIC is < 1 µM.

As for `CCc1nc2cc(Cl)ccn2c1C(=O)NCc1ccc(N2CCC(C(=O)N(C)C)CC2)cc1` [Compound 346, 7-Chloro-N-(4-(4-(dimethylcarbamoyl)piperidin-1-yl)benzyl)-2-ethylimidazo[1,2-a]pyridine-3-carboxamide], the MIC was < 1 µM. Next, `CCc1nc2cc(Cl)ccn2c1C(=O)NCc1ccc(N2CCC(C(=O)O)CC2)cc1` [Compound 302, 1-(4-((7-Chloro-2-ethylimidazo[1,2-a]pyridine-3-carboxamido)methyl)phenyl)piperidine-4-carboxylic acid]: < 1 µM.
